The values that follow come from ChEMBL document CHEMBL1201862, “PubChem BioAssay data set” (2004).

Experiment [1] can be described thus: HEK-293T cell viability reduction – luminescence, B-cell screen hits, cytotoxicity control for BCR NF-kB inhibitor project, dose response (AID 489021).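 Further: HEK-293T cells carrying an NF-kB luciferase reporter; cells exposed to compound for about 14 hours before viability readout.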 Format: functional, cell-based.
For experiment [2], the target named is T1, Protein Wnt-3a (Mus musculus, UniProt P27467). The experiment can be described thus: SAR analysis of small molecule antagonists of Gli-SUFU in a Wnt3a luminescent reporter assay. Format: functional. (In general: A reporter such as luciferase makes a cellular process visible.)
T1 sequence (P27467 whole entry): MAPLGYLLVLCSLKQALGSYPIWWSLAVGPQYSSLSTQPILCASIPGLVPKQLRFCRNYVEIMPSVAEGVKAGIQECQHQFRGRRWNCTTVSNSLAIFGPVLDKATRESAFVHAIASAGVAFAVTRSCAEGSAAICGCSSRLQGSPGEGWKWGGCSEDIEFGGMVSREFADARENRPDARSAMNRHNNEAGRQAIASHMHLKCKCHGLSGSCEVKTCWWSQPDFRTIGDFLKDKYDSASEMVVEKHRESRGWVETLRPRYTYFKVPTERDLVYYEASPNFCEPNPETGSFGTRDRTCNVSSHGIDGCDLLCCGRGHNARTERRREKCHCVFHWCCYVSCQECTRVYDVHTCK
A further experiment relates to Jurkat. The experiment in a line: SAR Analysis of small molecule inhibitors of T-cell specific antigen receptor-induced NF-kB activation in a Jurkat cell line using a luminescence assay - Set 2. [Related pubchem assays (depositor defined):AID435003, AID435012, AID465]. Format: functional, cell-based. The conditions noted are these: Homo sapiens.
Experiment [3] has as its system HEK293. The experiment can be described thus: SAR Analysis of small molecule inhibitors of T-cell specific antigen receptor-induced NF-kB activation in a HEK-293T cell line using a luminescence assay - Set 2. [Related pubchem assays (depositor defined):AID435003, AID435012, AID489026]. Format: functional, cell-based. The conditions noted are these: Homo sapiens.
In experiment [4] the target is T2, Heat shock factor protein 1 (Mus musculus, UniProt P38532).
T2 sequence (P38532 whole entry): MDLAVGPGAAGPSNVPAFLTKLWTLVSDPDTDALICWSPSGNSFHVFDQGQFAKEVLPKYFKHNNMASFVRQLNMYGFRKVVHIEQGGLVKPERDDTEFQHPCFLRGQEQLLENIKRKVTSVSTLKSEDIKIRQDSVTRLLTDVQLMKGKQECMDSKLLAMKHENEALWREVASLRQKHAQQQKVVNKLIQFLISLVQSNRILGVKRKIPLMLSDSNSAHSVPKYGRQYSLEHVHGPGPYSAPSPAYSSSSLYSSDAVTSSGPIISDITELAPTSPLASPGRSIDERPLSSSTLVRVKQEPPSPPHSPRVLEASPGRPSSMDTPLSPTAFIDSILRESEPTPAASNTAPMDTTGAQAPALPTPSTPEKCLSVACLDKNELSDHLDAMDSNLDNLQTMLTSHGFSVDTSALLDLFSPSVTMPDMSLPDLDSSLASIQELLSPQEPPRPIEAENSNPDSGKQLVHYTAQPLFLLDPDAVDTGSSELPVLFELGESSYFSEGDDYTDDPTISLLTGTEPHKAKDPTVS
The experiment in a line: decrease of HSF1-responsive luciferase luminescence – cell-based, NIH3T3, dose retest, confirmation (AID 2382).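 Further: NIH3T3 fibroblasts with HSF1-driven luciferase reporter stressed by proteasome inhibitor MG132; luminescence from HSF1-driven luciferase expression after 8 hours of MG132 stress.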 Format: functional.

In experiment [5] the test system is HEK293. The experiment can be described thus: HEK293T cell viability loss, resazurin readout – resazurin fluorescence, cytotoxicity control for NF-kB activator project, SAR follow-up (AID 493251). In kind it is functional, cell-based. The note with it: Homo sapiens. On the technique in general: Resazurin is reduced to fluorescent resorufin, in cell work by metabolically active cells.

In another experiment the target is DNA topoisomerase (Yersinia pestis, UniProt A0A2S9PM60). The experiment in a line: Yersinia topoisomerase I cleavage product accumulation – biochemical, cherry-pick, dose response (AID 588525).
DNA topoisomerase, sequence (A0A2S9PM60 whole entry): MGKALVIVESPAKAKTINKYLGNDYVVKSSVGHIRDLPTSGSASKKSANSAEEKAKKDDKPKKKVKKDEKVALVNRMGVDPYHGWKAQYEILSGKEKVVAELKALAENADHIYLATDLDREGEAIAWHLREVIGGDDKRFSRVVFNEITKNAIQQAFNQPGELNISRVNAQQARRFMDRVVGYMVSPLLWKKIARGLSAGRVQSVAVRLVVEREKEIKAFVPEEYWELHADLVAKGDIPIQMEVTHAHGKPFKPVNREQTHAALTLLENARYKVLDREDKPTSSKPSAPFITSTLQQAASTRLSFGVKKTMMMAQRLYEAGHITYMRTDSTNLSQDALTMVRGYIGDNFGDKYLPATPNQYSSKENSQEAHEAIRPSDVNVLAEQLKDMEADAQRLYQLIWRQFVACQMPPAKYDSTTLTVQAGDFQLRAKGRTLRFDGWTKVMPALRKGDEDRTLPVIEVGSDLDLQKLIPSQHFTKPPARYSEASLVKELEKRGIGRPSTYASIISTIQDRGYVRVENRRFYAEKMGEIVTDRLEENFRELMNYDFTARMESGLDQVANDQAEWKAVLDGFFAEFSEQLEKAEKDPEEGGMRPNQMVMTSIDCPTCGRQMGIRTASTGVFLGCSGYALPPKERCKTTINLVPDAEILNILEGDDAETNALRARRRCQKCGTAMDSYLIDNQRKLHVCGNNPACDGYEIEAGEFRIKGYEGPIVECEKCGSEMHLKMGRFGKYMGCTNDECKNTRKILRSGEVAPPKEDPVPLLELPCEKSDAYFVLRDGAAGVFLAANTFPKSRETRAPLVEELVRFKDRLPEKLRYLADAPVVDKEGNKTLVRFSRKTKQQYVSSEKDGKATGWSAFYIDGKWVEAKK
The test system of experiment [6] is Candida albicans. The experiment can be described thus: C. albicans growth inhibition with fluconazole – CaCi-2 strain, Alamar Blue, dry powder, set 4, dose response (AID 488943). In kind it is functional, organism-based.
The target of experiment [7] is T1, Protein Wnt-3a. The experiment in a line: antagonism of Wnt3a pathway luciferase reporter – Wnt-LIGHT cells, luminescence, selectivity assay for Gli-SUFU antagonist project, dose response (AID 651570).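 Further: Wnt-LIGHT reporter cells stimulated with conditioned medium from Wnt3a-producing cells.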 In kind it is functional. The conditions noted are these: read-out: IC50_Mean.
Experiment [8] deals with Candida albicans. The experiment in a line: resistant Candida growth with fluconazole co-treatment – CaCi-8 strain, Alamar Blue, dry powder, set 2, dose response (AID 488909). Format: functional, organism-based.
In experiment [9] the test system is Candida albicans. The experiment in a line: fluconazole-resistant Candida strain growth inhibitors – CaCi-8 strain, dry powder, set 4, dose response (AID 488950). Format: functional, organism-based.
Experiment [10] has as its system Candida albicans. The experiment can be described thus: Candida growth reduction in fluconazole presence – CaCi-2 strain, Alamar Blue, dry powder, set 2, antifungal resistance reversal project, dose response (AID 488930). In kind it is functional, organism-based.
Experiment [11] relates to HEK293. The experiment can be described thus: EBV LMP1 TES2 canonical NF-kB signalling blockers – cell-based, HEK293, luciferase, cherry-pick, dose response (AID 588343). In kind it is functional. The conditions noted are these: Homo sapiens.
The subject of experiment [12] is Candida albicans. The experiment in a line: single-agent toxicity toward C. albicans – CaCi-2 strain, no fluconazole, dry powder, set 4, counter-screen for reversing antifungal drug resistance, dose response (AID 488932). Format: functional, organism-based. A general note: The purpose of a counterscreen is to sort out artefacts and off-target activity.

The source made the active and inactive calls.

Usually EC50 stands for the concentration giving half of the maximal effect. `CCOc1ccc(-c2nc(CSCC(=O)NC3CC3)c(C)o2)cc1`: the IC50 in [1] is > 80 µM (inactive); at Protein Wnt-3a [2] it was > 21.8 µM (inactive); in the experiment with Jurkat, > 79 µM (inactive); in the experiment on HEK293 [3] it was > 80 µM (inactive); in the experiment on HEK293 [5] it was > 80 µM (inactive). For the same molecule, in [4], the concentration giving a half-maximal response (EC50) was 0.241 µM (active).

One may read the AC50 as the concentration at which the activity in the assay is half-maximal. Turning to `Cc1cc(C(=O)Cn2nc(C(=O)O)c3ccccc3c2=O)c(C)n1-c1ccc(OC(F)F)cc1`, the AC50 on DNA topoisomerase was 4.1 µM (active).

Take `O=C(C1CCCCC1)N1CCN(c2ccnc3cc(Cl)ccc23)CC1`: the AC50 is 0.688 µM (active) with Candida albicans [6]; 5.02 µM (active) in the experiment with Candida albicans [8]; 1.01 µM (active) in the experiment with Candida albicans [9]; 0.661 µM (active) with Candida albicans [10]; 12.5 µM (active) with HEK293 [11]; 200 µM (active) with Candida albicans [12]. In addition, the IC50 at Protein Wnt-3a [7] was 10.4 µM (active).
